Test results from the NIST ThermoML archive (doi:10.1021/je500271z).
Numbers after ± are expanded uncertainties.

Assay: osmotic coefficient (dimensionless); mn = molality of the nth substance listed, in mol/kg
Conditions: 298.15 K, Liquid, vapor pressure osmometry

**Q.** Which results are given for `[Cl-].[Na+]` [sodium chloride] + O?
**A.** osmotic coefficient (m1 = 0.2485): 0.95 ± 0.02; osmotic coefficient (m1 = 0.5058): 0.922 ± 0.02; osmotic coefficient (m1 = 1.993): 0.976 ± 0.02
